One assay has as its target T1, MCL-1 (Homo sapiens, UniProt Q07820).
T1 construct: purchased BPS Bioscience
Briefly: Cell free Mcl-1:Bim affinity assay (Mcl-1 Bim), fluorescence polarization competition. In kind it is binding. Conditions: 15 nM MCL-1, 5 nM FITC-Bim tracer, 1 hour at room temperature; Ki calculated from IC50 by Nikolovska-Coleska's equation; read-out: BIM_ Ki. The method, then: The binding affinity of each compound was measured via a fluorescence polarization competition assay, in which the compound competes for the same binding site with the ligand, and thus leads to a dose-dependent anisotropy reduction. The tracer ligand utilized was a fluorescein isothiocyanate labelled peptide (FITC-[…]) derived from Bim (GenScript).
The assay was carried out in black half-area 96-well NBS plate (Coming), containing 15 nM of MCL-1 (BPS Bioscience), 5 nM of FITC-Bim and 3-fold serial diluted test compounds in a total volume of 50 µL of assay buffer (20 mM HEPES, 50 mM NaCl, 0.002% Tween 20, 1 mM TCEP, and 1% DMSO). The reaction plate was incubated for 1 hour at room temperature. The change of anisotropy is measured with an Envision multimode plate reader (PerkinElmer) at emission wavelength 535 nm. Fluorescence polarization was calculated in mP unit and the percentage inhibition was calculated by % inhibition = 100x(mPDMSO-mP)/(mPDMSO-mPPC), in which mPDMSO is the DMSO control, and mPPC is the positive control. IC50 values were determined from a 10-point dose response curve by fitting the percent inhibition against compound concentration using the GraphPad Prism software. The inhibition constant Ki was subsequently calculated according to the Nikolovska-Coleska’s equation (Anal. Biochem., 2004, 332, 261), […]

In another assay the test system is H929 cells. Briefly: Cell viability assay (H929 10 FBS). In kind it is cell-based. Conditions: Homo sapiens, NCI-H929, 24 hours, CellTiTer-Glo or ATPlite, read-out: H929_10FB S IC50. Here is the method: Dispense 10 µL aliquot of prepared H929 cells (1:1 ratio of cells:Trypan Blue (#1450013, Bio-Rad)) onto cell counting slide (#145-0011, Bio-Rad) and obtain cell density and cell viability using cell counter (TC20, Bio-Rad). Remove appropriate volume of resuspended cells from culture flask to accommodate 4000 cells/well @ 10 µL/well. Transfer H929 cells to 50 mL conical (#430290, Corning). Spin down at 1000 rpm for 5 min using tabletop centrifuge (SPINCHRON 15, Beckman). Discard supernatant and resuspend cell pellet in modified RPMI 1640 (#10-040-CV, Coming) cell culture media containing 10% FBS (F2422-500 ML, Sigma), sodium pyruvate (100 mM) (#25-000-CL, Corning), HEPES buffer (1 M) (#25-060-CL, Coming) and glucose (200 g/L) (A24940-01, Gibco) to a cell density of 400,000 cells/mL. Dispense 10 µL of resuspended H929 cells per well in 384-well small volume TC treated plate (#784080, Greiner Bio-one) using standard cassette (#50950372, Thermo Scientific) on Multi-drop Combi (#5840310, Thermo Scientific) in laminar flow cabinet. Dispense compounds onto plates using digital liquid dispenser (D300E, Tecan). Incubate plates in humidified tissue culture incubator @ 37° C. for 24 hours. […] Read plates with microplate reader (PheraStar, BMG Labtech) using 384 well luminescence mode.

Ki and IC50 data for one molecule are collected here from patent publication US20230357275A1, “SPIRO-SULFONAMIDE DERIVATIVES AS INHIBITORS OF MYELOID CELL LEUKEMIA-1 (MCL-1) PROTEIN” (Prelude Therapeutics, Incorporated, priority 2020, published 2023).

T1 sequence (Q07820 whole entry): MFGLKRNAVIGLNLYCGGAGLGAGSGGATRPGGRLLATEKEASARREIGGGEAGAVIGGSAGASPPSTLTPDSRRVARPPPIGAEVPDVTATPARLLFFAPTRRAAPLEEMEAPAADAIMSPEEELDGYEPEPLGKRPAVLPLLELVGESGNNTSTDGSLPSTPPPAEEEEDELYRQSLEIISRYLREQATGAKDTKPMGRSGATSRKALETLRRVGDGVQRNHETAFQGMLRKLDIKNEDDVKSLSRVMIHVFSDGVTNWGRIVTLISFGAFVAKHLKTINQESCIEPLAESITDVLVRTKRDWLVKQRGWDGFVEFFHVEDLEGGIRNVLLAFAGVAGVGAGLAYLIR

`CN(C)C(=O)O[C@H]1/C=C/COC(C)(C)C(=O)NS(=O)(=O)c2ccc3c(c2)N(C[C@@H]2CC[C@H]21)C[C@@]1(CCCc2cc(Cl)ccc21)CO3` [Example 34, [(3R,6R,7S,8E,22S)-6′-Chloro-12,12-dimethyl-13,15,15-trioxo-spiro [11,20-dioxa-15-thia-1,14-diazatetracyclo[14.7.2.03,6.019,24]pentacosa-8,16,18,24-tetraene-22,1′-tetralin]-7-yl] N,N-dimethylcarbamate]: the Ki at MCL-1 was less than 0.001 µM. In the assay with H929 cells, the IC50 was less than 0.5 µM.
